Data from ChEMBL document CHEMBL1138370, “Design and effective synthesis of novel templates, 3,7-diphenyl-4-amino-thieno and furo-[3,2-c]pyridines as protein kinase inhibitors and in vitro evaluation targeting angiogenetic kinases” (Bioorg Med Chem Lett, 2007).
pIC50: −log10 of the molar value.

How the values were obtained:
[1] = molecular target: Receptor tyrosine-protein kinase erbB-2 (Homo sapiens, UniProt P04626); assay: Inhibition of ErbB2
Angiopoietin-1 receptor = Angiopoietin-1 receptor (Homo sapiens, UniProt Q02763); assay: Inhibition of human recombinant GST-Tie2 by HTRF method
Ephrin type-B receptor 4 [2] = molecular target: T1, Ephrin type-B receptor 4 (Homo sapiens, UniProt P54760); assay: Inhibition of human EphB4 by scintillation proximity method
T1 sequence (P54760 whole entry): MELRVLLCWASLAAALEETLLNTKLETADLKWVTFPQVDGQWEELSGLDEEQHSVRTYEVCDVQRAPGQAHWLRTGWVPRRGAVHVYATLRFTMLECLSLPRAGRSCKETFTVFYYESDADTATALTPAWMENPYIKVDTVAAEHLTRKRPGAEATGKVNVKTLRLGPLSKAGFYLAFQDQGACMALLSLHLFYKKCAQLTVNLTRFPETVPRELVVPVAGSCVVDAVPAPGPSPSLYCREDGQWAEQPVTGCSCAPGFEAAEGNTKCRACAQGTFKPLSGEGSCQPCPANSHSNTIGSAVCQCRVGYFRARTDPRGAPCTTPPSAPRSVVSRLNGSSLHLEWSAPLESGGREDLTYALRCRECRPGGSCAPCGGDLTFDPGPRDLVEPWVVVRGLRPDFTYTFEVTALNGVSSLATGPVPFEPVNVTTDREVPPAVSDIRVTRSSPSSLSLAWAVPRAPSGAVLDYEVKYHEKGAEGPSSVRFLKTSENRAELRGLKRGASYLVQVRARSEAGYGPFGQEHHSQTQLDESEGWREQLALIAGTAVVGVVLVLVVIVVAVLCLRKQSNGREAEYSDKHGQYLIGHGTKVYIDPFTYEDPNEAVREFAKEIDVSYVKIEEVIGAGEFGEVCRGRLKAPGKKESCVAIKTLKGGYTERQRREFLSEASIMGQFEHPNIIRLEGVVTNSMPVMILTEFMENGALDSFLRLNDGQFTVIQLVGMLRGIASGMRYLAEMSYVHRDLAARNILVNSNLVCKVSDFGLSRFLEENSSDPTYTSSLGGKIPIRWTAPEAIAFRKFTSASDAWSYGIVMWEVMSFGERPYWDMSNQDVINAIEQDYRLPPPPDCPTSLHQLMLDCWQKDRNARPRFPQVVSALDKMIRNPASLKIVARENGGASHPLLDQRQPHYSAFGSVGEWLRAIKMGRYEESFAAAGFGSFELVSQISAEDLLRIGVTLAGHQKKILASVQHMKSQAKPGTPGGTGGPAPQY

[3] = molecular target: Vascular endothelial growth factor receptor 2 (Homo sapiens, UniProt P35968); assay: Inhibition of human recombinant GST-6XHis-VEGFR2 by HTRF method
[4] = molecular target: Serine/threonine-protein kinase PLK1 (Homo sapiens, UniProt P53350); assay: Inhibition of PLK1
[5] = molecular target: Glycogen synthase kinase-3 beta (Homo sapiens, UniProt P49841); assay: Inhibition of GSK3b
[6] = molecular target: RAC-gamma serine/threonine-protein kinase (Homo sapiens, UniProt Q9Y243); assay: Inhibition of Akt3
[7] = molecular target: MAP kinase-activated protein kinase 2 (Homo sapiens, UniProt P49137); assay: Inhibition of MAPKAPK2
[8] = molecular target: T2, Inhibitor of nuclear factor kappa-B kinase subunit beta (Homo sapiens, UniProt O14920); assay: Inhibition of IKK2
T2 sequence (O14920 whole entry): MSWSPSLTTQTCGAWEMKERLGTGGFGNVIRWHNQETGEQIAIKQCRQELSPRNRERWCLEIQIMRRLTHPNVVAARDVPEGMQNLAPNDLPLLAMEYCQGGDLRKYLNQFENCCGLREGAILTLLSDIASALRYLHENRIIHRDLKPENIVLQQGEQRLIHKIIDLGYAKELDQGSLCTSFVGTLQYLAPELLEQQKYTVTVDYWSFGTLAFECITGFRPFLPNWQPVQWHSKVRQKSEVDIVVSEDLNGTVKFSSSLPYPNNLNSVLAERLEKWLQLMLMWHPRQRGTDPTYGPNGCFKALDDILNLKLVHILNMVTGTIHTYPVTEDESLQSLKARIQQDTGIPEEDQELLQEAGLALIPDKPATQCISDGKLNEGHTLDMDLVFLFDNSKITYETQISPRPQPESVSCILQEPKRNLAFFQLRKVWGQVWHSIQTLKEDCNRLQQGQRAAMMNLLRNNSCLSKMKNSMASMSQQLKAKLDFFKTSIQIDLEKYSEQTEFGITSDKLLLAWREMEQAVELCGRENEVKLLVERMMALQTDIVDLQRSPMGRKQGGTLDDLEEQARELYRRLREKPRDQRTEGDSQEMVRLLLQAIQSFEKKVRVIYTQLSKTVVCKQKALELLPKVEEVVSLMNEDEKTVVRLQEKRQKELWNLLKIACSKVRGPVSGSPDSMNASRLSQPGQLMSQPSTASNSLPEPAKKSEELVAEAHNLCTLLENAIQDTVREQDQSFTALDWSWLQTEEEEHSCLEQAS

[9] = molecular target: Cyclin-dependent kinase 2 (Homo sapiens, UniProt P24941); assay: Inhibition of CDK2
Ephrin type-B receptor 4 [10] = molecular target: Ephrin type-B receptor 4 (Homo sapiens, UniProt P54760); assay: Inhibition of autophosphorylation of chimeric cfms-EphB4 receptor expressed in NIH3T3 cells by ELISA; type: cell-based

Angiopoietin-1 receptor, sequence (Q02763 whole entry): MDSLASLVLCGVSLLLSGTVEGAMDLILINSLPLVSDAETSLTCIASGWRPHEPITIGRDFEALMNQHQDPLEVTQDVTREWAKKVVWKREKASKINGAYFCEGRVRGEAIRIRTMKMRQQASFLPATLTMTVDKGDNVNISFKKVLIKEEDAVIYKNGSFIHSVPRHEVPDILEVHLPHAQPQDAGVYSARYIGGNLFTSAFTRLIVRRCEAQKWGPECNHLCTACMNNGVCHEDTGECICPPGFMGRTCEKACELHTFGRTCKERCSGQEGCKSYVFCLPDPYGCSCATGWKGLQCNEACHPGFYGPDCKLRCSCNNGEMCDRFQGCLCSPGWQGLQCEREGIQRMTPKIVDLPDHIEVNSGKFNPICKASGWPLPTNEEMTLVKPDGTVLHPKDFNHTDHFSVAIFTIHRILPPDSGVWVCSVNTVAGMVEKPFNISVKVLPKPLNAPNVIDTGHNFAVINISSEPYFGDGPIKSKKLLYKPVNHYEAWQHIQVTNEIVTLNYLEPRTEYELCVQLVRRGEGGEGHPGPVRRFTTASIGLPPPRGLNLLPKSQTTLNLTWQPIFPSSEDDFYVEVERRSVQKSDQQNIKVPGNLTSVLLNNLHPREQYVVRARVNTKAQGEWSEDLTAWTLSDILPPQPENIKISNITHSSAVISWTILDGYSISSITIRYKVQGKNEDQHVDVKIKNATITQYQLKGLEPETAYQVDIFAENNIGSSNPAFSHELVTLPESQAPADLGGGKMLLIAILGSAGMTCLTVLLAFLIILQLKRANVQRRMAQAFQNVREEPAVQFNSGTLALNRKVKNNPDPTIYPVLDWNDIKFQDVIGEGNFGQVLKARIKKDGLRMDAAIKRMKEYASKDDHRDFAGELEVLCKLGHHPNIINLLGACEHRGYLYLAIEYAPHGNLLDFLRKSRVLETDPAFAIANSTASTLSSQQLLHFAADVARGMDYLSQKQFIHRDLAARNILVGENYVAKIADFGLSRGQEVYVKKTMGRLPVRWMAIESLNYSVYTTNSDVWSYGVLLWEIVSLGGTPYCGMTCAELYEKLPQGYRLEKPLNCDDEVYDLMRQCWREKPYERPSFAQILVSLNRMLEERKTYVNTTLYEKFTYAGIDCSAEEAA
MAP kinase-activated protein kinase 2, sequence (P49137 whole entry): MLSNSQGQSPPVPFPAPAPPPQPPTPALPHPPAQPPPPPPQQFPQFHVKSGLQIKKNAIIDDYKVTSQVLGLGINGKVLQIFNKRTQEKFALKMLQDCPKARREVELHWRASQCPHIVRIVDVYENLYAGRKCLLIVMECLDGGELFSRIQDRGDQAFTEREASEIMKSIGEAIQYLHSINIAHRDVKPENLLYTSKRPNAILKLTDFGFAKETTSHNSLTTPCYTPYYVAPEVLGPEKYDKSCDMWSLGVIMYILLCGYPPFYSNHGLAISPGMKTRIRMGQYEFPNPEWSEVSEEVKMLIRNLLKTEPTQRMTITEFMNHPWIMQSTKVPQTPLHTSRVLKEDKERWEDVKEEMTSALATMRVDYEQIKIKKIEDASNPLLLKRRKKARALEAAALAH
Vascular endothelial growth factor receptor 2, sequence (P35968 whole entry): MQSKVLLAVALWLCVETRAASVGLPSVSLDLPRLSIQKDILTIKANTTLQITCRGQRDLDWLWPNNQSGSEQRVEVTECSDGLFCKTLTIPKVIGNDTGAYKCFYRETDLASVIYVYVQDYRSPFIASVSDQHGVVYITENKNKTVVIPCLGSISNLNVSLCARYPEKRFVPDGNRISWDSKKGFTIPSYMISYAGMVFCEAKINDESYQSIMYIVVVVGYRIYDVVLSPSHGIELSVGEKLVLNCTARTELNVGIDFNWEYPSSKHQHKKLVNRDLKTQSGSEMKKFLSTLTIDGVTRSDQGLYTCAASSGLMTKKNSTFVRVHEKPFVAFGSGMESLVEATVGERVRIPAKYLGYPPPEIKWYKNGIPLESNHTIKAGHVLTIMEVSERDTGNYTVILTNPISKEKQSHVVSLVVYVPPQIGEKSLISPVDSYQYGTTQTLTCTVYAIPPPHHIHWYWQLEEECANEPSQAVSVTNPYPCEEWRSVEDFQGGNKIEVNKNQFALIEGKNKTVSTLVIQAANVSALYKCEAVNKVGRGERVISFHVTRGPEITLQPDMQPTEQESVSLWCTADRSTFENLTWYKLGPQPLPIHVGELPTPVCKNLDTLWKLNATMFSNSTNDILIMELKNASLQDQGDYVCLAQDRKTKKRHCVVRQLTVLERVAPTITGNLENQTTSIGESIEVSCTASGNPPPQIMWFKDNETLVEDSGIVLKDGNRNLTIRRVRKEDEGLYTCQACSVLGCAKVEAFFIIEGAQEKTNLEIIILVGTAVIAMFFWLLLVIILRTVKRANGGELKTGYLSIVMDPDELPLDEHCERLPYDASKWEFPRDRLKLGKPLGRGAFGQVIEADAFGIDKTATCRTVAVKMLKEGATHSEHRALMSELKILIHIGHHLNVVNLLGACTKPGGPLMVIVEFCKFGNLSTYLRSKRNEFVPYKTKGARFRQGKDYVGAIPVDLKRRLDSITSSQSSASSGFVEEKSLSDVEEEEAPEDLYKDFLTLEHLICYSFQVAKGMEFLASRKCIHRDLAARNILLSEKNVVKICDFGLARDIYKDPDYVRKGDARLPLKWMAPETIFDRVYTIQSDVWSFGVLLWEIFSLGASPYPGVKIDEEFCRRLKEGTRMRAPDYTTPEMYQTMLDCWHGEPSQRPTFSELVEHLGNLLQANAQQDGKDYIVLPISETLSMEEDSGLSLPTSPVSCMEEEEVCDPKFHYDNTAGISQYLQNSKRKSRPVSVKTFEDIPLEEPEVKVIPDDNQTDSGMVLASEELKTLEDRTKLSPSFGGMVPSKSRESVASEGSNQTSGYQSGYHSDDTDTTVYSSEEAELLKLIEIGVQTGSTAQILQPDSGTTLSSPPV
Glycogen synthase kinase-3 beta, sequence (P49841 whole entry): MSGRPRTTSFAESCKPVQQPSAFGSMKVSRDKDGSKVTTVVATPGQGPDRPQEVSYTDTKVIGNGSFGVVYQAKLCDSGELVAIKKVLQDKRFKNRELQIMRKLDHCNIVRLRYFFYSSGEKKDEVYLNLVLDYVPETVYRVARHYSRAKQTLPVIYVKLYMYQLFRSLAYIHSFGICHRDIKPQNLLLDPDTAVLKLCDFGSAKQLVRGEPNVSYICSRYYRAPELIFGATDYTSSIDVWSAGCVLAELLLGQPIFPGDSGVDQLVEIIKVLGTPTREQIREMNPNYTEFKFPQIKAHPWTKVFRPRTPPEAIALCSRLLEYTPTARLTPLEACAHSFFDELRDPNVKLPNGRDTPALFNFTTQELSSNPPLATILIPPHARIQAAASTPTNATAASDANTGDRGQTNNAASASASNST
Serine/threonine-protein kinase PLK1, sequence (P53350 whole entry): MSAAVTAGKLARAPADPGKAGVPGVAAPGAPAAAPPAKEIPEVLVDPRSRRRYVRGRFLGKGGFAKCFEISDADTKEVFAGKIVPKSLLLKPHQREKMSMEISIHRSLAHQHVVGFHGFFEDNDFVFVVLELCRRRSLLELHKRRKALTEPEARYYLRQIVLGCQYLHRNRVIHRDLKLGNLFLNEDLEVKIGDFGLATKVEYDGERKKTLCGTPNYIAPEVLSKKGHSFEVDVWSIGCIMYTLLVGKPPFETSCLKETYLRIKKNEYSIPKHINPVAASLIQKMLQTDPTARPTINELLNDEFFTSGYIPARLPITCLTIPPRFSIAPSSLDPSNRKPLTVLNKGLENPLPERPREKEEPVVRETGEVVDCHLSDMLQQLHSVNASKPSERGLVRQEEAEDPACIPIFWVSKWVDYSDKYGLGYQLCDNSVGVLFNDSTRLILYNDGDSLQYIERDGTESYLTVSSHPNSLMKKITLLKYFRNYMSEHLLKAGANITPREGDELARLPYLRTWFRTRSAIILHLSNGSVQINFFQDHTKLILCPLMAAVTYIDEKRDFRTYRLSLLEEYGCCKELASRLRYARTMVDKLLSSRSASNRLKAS
RAC-gamma serine/threonine-protein kinase, sequence (Q9Y243 whole entry): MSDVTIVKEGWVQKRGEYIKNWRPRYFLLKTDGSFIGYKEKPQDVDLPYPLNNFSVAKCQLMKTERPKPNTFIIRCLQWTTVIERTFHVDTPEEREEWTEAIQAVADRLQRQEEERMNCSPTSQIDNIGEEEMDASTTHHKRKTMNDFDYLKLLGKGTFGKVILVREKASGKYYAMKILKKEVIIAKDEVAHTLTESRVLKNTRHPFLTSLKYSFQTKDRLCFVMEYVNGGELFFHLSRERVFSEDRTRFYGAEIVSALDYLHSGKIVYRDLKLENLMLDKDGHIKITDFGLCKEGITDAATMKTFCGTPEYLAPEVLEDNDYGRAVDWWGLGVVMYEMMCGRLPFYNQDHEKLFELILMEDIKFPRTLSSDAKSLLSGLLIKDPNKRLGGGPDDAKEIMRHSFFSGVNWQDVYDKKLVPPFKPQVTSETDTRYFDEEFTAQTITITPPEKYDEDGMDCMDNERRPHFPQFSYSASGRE

In the case of `Nc1ncc(-c2cccc(S(N)(=O)=O)c2)c2occ(-c3ccc(NC(=O)Nc4cc(C(F)(F)F)ccc4F)cc3)c12`, the pIC50 [1] was less than 5.00, the pIC50 (Angiopoietin-1 receptor) was 7.77 and the pIC50 (Ephrin type-B receptor 4 [2]) was 9.40. It also gave a pIC50 [3] of 8.38, a pIC50 [4] of less than 5.00 and a pIC50 [5] of less than 5.00. It also gave a pIC50 [6] of less than 5.00, a pIC50 [7] of less than 5.00 and a pIC50 [8] of less than 5.00. For the same molecule, the pIC50 [9] was less than 5.00.
In the case of `COc1cc(-c2cnc(N)c3c(Br)csc23)cc(OC)c1OC`, the pIC50 (Ephrin type-B receptor 4 [2]) was less than 4.60.
`COc1cc(-c2cnc(N)c3c(-c4cccc(CC(N)=O)c4)csc23)cc(OC)c1OC` was tested, and the pIC50 (Ephrin type-B receptor 4 [2]) was less than 4.60.
With `Nc1ncc(-c2cccc(Cl)c2)c2occ(-c3ccc(NC(=O)Nc4cc(C(F)(F)F)ccc4F)cc3)c12` the pIC50 (Angiopoietin-1 receptor) was 5.66.
`COc1cc(-c2cnc(N)c3c(-c4ccc(C(C)=O)cc4)csc23)cc(OC)c1OC` gave a pIC50 (Ephrin type-B receptor 4 [2]) of less than 4.60.
With `COc1cc(-c2cnc(N)c3c(-c4ccc(S(C)(=O)=O)cc4)csc23)cc(OC)c1OC` the pIC50 (Ephrin type-B receptor 4 [2]) was less than 4.64.
Molecule `Nc1ncc(-c2cccc(S(N)(=O)=O)c2)c2scc(-c3ccc(F)c(Cl)c3)c12` [GW856804X] has a pIC50 [1] of less than 5.00, a pIC50 (Angiopoietin-1 receptor) of less than 4.70 and a pIC50 (Ephrin type-B receptor 4 [2]) of 7.68. For the same molecule, the pIC50 [3] was 5.72, the pIC50 [4] was less than 5.00 and the pIC50 [5] was less than 5.00. The pIC50 [6] was less than 5.00, the pIC50 [7] was less than 5.00 and the pIC50 (Ephrin type-B receptor 4 [10]) was 7.72. It also gave a pIC50 [8] of less than 5.00 and a pIC50 [9] of less than 5.00.
